PubChem BioAssay (NCI)
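A five-concentration, 48-hour dose response in 96-well plates underlies each endpoint, interpolated linearly between surrounding concentrations. TGI denotes the concentration required for complete inhibition of growth.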

How the values were obtained:
Assay in all cases: inhibition of tumour cell growth, NCI panel, 48 h
ACHN renal = test system: ACHN renal
CCRF-CEM leukemia = test system: CCRF-CEM leukemia
DU-145 prostate = test system: DU-145 prostate
EKVX NSCLC = test system: EKVX NSCLC
HOP-92 NSCLC = test system: HOP-92 NSCLC
M14 melanoma = test system: M14 melanoma
MCF7 breast = test system: MCF7 breast
NCI-H226 lung = test system: NCI-H226 lung
NCI-H460 lung = test system: NCI-H460 lung
OVCAR-5 ovarian = test system: OVCAR-5 ovarian
RXF 393 renal = test system: RXF 393 renal
SF-268 CNS = test system: SF-268 CNS
SK-MEL-2 melanoma = test system: SK-MEL-2 melanoma
SNB-19 CNS = test system: SNB-19 CNS
SN12C renal = test system: SN12C renal

SMILES | TGI (ACHN renal) [µM] | TGI (CCRF-CEM leukemia) [µM] | TGI (DU-145 prostate) [µM] | TGI (EKVX NSCLC) [µM] | TGI (HOP-92 NSCLC) [µM] | TGI (M14 melanoma) [µM] | TGI (MCF7 breast) [µM] | TGI (NCI-H226 lung) [µM] | TGI (NCI-H460 lung) [µM] | TGI (OVCAR-5 ovarian) [µM] | TGI (RXF 393 renal) [µM] | TGI (SF-268 CNS) [µM] | TGI (SK-MEL-2 melanoma) [µM] | TGI (SNB-19 CNS) [µM] | TGI (SN12C renal) [µM]
O=C(O)CN1C=C(C(=O)c2cc3ccccc3n2S(=O)(=O)c2ccccc2)CCC1 | > 100 | > 100 | > 100 | > 100 | > 100 | > 100 | > 100 | > 100 | > 100 | > 100 | > 100 | > 100 | > 100 | > 100 | 
CC1=CC(=O)CC(C)(C)C1/C=C/C(C)=C/C=C/C(C)=C/C=C/C=C(C)/C=C/C=C(C)/C=C/C1C(C)=CC(=O)CC1(C)C (configuration not stated) | > 100 | > 100 | > 100 | > 100 | 62.8 | > 100 | > 100 | > 100 | > 100 | > 100 | > 100 | > 100 | > 100 |  | 
O=c1c2cc(I)ccc2nc(SCc2nncs2)n1Cc1ccccc1 | > 100 | 70.8 | > 100 | 48.6 | 35.1 | > 100 | > 100 | > 100 | > 100 | > 100 | 81.6 | > 100 | 85.5 | > 100 | > 100
CC[C@H](C)[C@H]1NC(=O)[C@@H](NC(=O)[C@@H](CC(C)C)N(C)C(=O)C2CCCN2C(=O)[C@H](C)O)[C@@H](C)OC(=O)[C@H](Cc2ccc(OC)cc2)N(C)C(=O)[C@@H]2CCCN2C(=O)[C@H](CCCCNC(=O)OCc2ccccc2)NC(=O)[C@H](C)C(=O)[C@H](C(C)C)OC(=O)C[C@@H]1O (some centres not stated) | > 25 | > 25 | > 25 | > 25 | > 25 | > 25 | > 25 | > 25 | > 25 | > 25 | > 25 | > 25 | 10.1 | > 25 | > 25
O=C1NC(=O)C(F)(n2cc(F)c(=O)[nH]c2=O)C(O)N1 (configuration not stated) | > 10 | > 10 | > 10 | > 10 | > 10 | > 10 | > 10 | > 10 | > 10 | > 10 | > 10 | > 10 | > 10 | > 10 | > 10
CN(C)CCCN1C(=S)N(CCCN(C)C)c2c3ccccc3nc3c([N+](=O)[O-])ccc1c23 | 16.1 | > 100 | 19.8 | 25.1 | 19.5 | 26.8 | 19.4 | 24.1 | 18 | 39.5 | 17.8 | 32.5 | 34.8 | 26 | 18.1
O=C(O)CCCC(=O)Nn1c(Cc2ccc(Cl)cc2)n[nH]c1=O | > 100 | > 100 | > 100 | > 100 | > 100 | > 100 | > 100 | > 100 |  | > 100 | > 100 | > 100 | > 100 |  | > 100
CC(C)OC(=O)c1ccc(CCC2=CC(=O)C=CC2=O)cc1 | 18.8 | 10.9 | 37 | 23.8 | 13.9 | 39 | 47.7 | 33.5 | 54.1 | 29.4 | 25.1 | 28.6 | 43.1 | 56.8 | 26.5
Cc1ccccc1N=Nc1c(O)c(S(=O)(=O)O)cc2cc(S(=O)(=O)O)ccc12 | > 100 | > 100 | > 100 | > 100 | > 100 | > 100 | > 100 | > 100 | > 100 | > 100 | > 100 | > 100 | > 100 | > 100 | > 100
COC(=O)/C=C1\C(=O)N(C(C)=O)c2ccc(Br)cc21 | 23.9 | 4.84 | 25.5 | 32.1 | 29.5 | 23 | 16.8 | 29.4 | 30.4 | 32.4 | 21.2 | 21.1 | 27.7 | 27.9 | 18.3
CC(=O)Nc1c(S(=O)(=O)c2ccccc2)c(C)c(C)n1CCN(C)C | > 100 | > 100 | > 100 | > 100 | > 100 | > 100 | > 100 | > 100 | > 100 | > 100 | > 100 | > 100 | > 100 | > 100 | > 100
O=C1C[C@H](c2ccccc2)O[C@@H](c2ccccc2)C1 |  | > 100 | > 100 | > 100 | > 100 | > 100 | > 100 | > 100 | > 100 | > 100 | > 100 | > 100 | > 100 | > 100 | > 100
COc1ccccc1NC(=S)N/N=C/c1c(C)n(C)n(-c2ccccc2)c1=O | > 100 | > 100 | > 100 | > 100 | > 100 | > 100 | > 100 | > 100 | > 100 |  | > 100 | > 100 | > 100 | > 100 | 
OC(c1ccc(F)cc1)C(F)(F)c1nc2ccccc2o1 (configuration not stated) | > 100 | > 100 | > 100 | > 100 | > 100 | > 100 | > 100 | > 100 | > 100 |  | > 100 | > 100 | > 100 | > 100 | 
CC(=O)C1=C(C)N2C(=NC3=C(CCc4ccccc43)C2c2ccc(F)cc2)S1 (configuration not stated) | > 100 | > 100 | > 100 | > 100 | > 100 | > 100 | > 100 | > 100 |  | > 100 | > 100 | > 100 | > 100 | > 100 | > 100
CCc1n[nH]c(=O)n1/N=C/c1ccccc1O | > 100 | > 100 | > 100 | > 100 | > 100 | > 100 | > 100 |  |  | > 100 | > 100 | > 100 | > 100 | > 100 | > 100
N#Cc1cc(C#N)c(N)nc1N | > 100 | > 100 | > 100 | > 100 | > 100 | > 100 | > 100 | > 100 | > 100 | > 100 | > 100 |  | > 100 | > 100 | > 100
CCCCNC(=O)c1cc2c(cc1Cl)Sc1nccn1S2(=O)=O | > 100 | > 100 | > 100 | > 100 | > 100 | > 100 | > 100 |  | > 100 | > 100 | > 100 | > 100 | > 100 | > 100 | > 100
C=CCn1c(-c2ccc([N+](=O)[O-])cc2)cs/c1=N\C(P(=O)(O)O)P(=O)(O)O | > 100 | > 100 | > 100 | > 100 | > 100 | > 100 | > 100 | > 100 | > 100 | > 100 | > 100 | > 100 |  | > 100 | 
CC(=O)C(=[N+]=[N-])C(=O)N1CCOC1=O | > 10 | > 10 | > 10 | > 10 |  | > 10 | > 10 | > 10 | > 10 | > 10 | > 10 | > 10 | > 10 | > 10 | > 10
O=C1NC(N2CCOCC2)=N/C1=C\c1ccc(Cl)cc1 | > 100 | > 100 | > 100 | > 100 | > 100 | > 100 | > 100 | > 100 |  | > 100 | > 100 | > 100 | > 100 | > 100 | > 100
O=C(NC1(c2cc3ccccc3s2)CCCCC1)C1CCC1 | > 100 | > 100 | > 100 | > 100 | > 100 | > 100 | > 100 | > 100 | > 100 | > 100 | > 100 |  | > 100 | > 100 | > 100
O=c1oc2ccccc2nc1/C=C(\O)c1ccc(Cl)cc1 | > 100 | > 100 | > 100 | > 100 |  | > 100 | > 100 | > 100 | > 100 | > 100 | > 100 | > 100 | > 100 | > 100 | > 100
O=c1ccn(CC2(CO)CCC2)c(=O)[nH]1 | > 100 | > 100 | > 100 | > 100 | > 100 |  | > 100 | > 100 | > 100 | > 100 | > 100 | > 100 | > 100 |  | > 100
